# Results taken from patent US20100010078A1, “METHODS OF TREATING ANDROGEN DEPENDENT PROSTATE CANCER BY ADMINISTERING AN ACTIVE PHARMACEUTICAL INGREDIENT BEING FISETIN, 3,3',4',7-TETRAHYDROXYFLAVONE OR A DERIVATIVE THEREOF, IN AN ORAL, TRANSDERMAL OR TOPICAL DOSAGE FORM” (priority 2008, published 2010).
# Peptide text beside a SMILES is read from it. * marks the point of attachment. Cbz = O=C(OCc1ccccc1)*; CH2F = FC*
# Experiments:
# [1] = tested on: caspase-3, -8 and -9; assay: Western blot, active caspase-3, -8 and -9 in LNCaP cells; type: cell-based, human; conditions: Z-VAD-FMK 40 μM for 2 h before fisetin (10-60 μM), compared to fisetin treatment
# Description: Protein extraction and western blotting. Following the treatment of LNCaP cells with fisetin (10-60 μM; 48 h), the media was aspirated, the cells were washed with cold PBS (pH 7.4), and ice-cold lysis buffer (50 mM Tris-HCl, 150 mM NaCl, 1 mM EGTA, 1 mM EDTA, 20 mM NaF, 100 mM Na3VO4, 0.5% NP-40, 1% Triton X-100, 1 mM PMSF (pH 7.4)) with freshly added protease inhibitor cocktail (Protease Inhibitor Cocktail Set III, Calbiochem, La Jolla, Calif.) over ice for 30 min. The cells were scraped and the lysate was collected in a microfuge tube and passed through a needle to break up the cell aggregates. […]
# For western blotting, 30-50 μg protein was resolved over 8-12% polyacrylamide gels and transferred to a nitrocellulose membrane. The blot was blocked in blocking buffer (5% nonfat dry milk/1% Tween 20; in 20 mM TBS, pH 7.6) for 1 hr at room temperature, incubated with appropriate monoclonal or polyclonal primary antibody in blocking buffer for 1.5 h to overnight at 4° C., followed by incubation with anti-mouse or anti-rabbit secondary antibody horseradish peroxidase conjugate obtained from Amersham Life Science Inc. and detected by chemiluminescence and autoradiography using XAR-5 film obtained from Eastman Kodak Co. (Rochester, N.Y., USA). […]
# [2] = tested on: caspase-3 and -7; assay: Immunofluorescence staining for active caspase-3 and -7; type: cell-based, human; conditions: LNCaP, Z-VAD-FMK 40 μM for 2 h before fisetin 40 μM
# Description: Immunofluorescence staining for active caspase-3 and -7. LNCaP cells were incubated with 40 μM concentration of the general caspase inhibitor Z-VAD-FMK for 2 h, followed by the addition of fisetin (40 μM; 48 h) and then harvested. ICT's Magic Red™ substrate-based MR-Caspase assay kit was used for the immunofluorescence staining for caspase-3 and -7. This kit utilizes the fluorophore, cresyl violet. As the 4 amino acid sequence, aspartylglutamylalanylaspartic acid (DEVD) is the optimal sequence for caspase -3 as well as -7, it was coupled to cresyl violet to create the caspase 3/7 substrate, MR-(DEVD)2. […] Following enzymatic hydrolysis at one or both of the aspartic acid amide linkage sites, the mono and non-substituted cresyl violet fluorophores fluoresce red and fluorescence photographs were obtained at 510-560 nm excitation and 610 nm emission.
structure (smiles),measurement,setting,value
"COC(=O)C[C@H](NC(=O)[C@H](C)NC(=O)[C@@H](NC(=O)OCc1ccccc1)C(C)C)C(=O)CF [Z-VAD-FMK, reference compound] (Cbz-Val-Ala-Asp(OMe)-CH2F)","protein expression of active caspase-3, -8 and -9",[1],significant decrease
same,immunofluorescence staining of active caspase-3 & -7,[2],significant decrease
